Measurements published in US20230416786A1, “USE OF AMINOQUINOLINE COMPOUNDS FOR HIGHER GENE INTEGRATION” (CELLECTIS SA, priority 2020, published 2023).
Where a name gives a salt, the structure may show the parent alone. Read-outs that look alike come from different tables or passages of the source.

Experiments:
primary T-cells = conditions: Example 3, FIG. 3, TRAC TALEN + AAV-CAR-MESO, without chloroquine 29%
Description: (§1) The targeted sequences are […]gctcgcgctactc[…]

HSCs = test: Targeted integration of HLA-E repair template at the B2M locus in HSCs (B2M TALEN + AAV-HLA-E, flow cytometry of HLA-E positive cells); assay type: cell-based, human
Description: as §1
For HSCs, AAV-HLA-E particles was thawed on ice and aliquot to transduce each of the HSC samples at 10^4 viral genome per cell (vg/cell).

CCN(CC)CCCC(C)Nc1ccnc2cc(Cl)ccc12 (centres unmarked) [chloroquine, N4-(7-chloroquinolin-4-yl)-N1,N1-diethylpentane-1,4-diamine diphosphate]
CAR positive cells (nuclease-induced targeted integration at TRAC locus) (primary T-cells; chloroquine 0.05 mM): 35% | CAR positive cells (nuclease-induced targeted integration at TRAC locus) (primary T-cells; second chloroquine concentration (0.1 mM per first sentence)): 33.8% | HLA-E expression (reflects targeted integration at the B2M locus) (HSCs; Example 2, FIG. 2, B2M TALEN with HLA-E repair matrix, chloroquine 0.1 mM, without chloroquine 23.4%): ~38% | optimum CQ dose for HLA-E positive cells (HSCs; Example 4, FIG. 4, B2M TALEN + AAV-HLA-E): 0.02 nM | percentage of HLA-E positive cells (HSCs; Example 6, FIG. 6E, B2M TALEN + i53 mRNAs (inhibition of 53BP1) + AAV-HLA-E combined with chloroquine 0.02 mM, control 31.5%): 63.6% | percentage of HLA-E positive cells (HSCs; Example 6, FIGS. 6B and 6C, B2M TALEN + AAV-HLA-E, without 53BP1 inhibition, chloroquine 0.02 mM, without any compound 31.5%): 53.4%

CCN(CCO)CCCC(C)Nc1ccnc2cc(Cl)ccc12 (centres unmarked) [hydroxychloroquine, 7-Chloro-4-[4-(N-ethyl-N-b-hydroxyethylamino)-1-methylbutylamino]quinoline sulfate]
percentage of HLA-E positive cells (HSCs; Example 5, FIG. 5, B2M TALEN + AAV-HLA-E, compound 0.02 mM, without any compound 33.3%): 43.4%

i53: mRNAs encoding i53 (SEQ ID NO. 40), a 53BP1 inhibitor, co-electroporated with B2M TALEN
percentage of HLA-E positive cells (HSCs; Example 6, FIGS. 6B and 6D, B2M TALEN + 4 μg/million cells mRNAs encoding i53 + AAV-HLA-E, without chloroquine, control 31.5%): 39.9%
